The results in this text go back to a melting point compilation (Tetko et al.; mined from patent text by program, amines drawn as free bases though some values may be those of a salt).

The melting point is the temperature of the solid-liquid transition.

For `N=C(N)Nc1nc(CCCCNC(N)=N[N+](=O)[O-])cs1`, the melting point lay in the range of 180 to 181 °C.

`O=C(O)C1=Cc2cc(-c3ccc(Cl)cc3)ccc2OCC1` gave a melting point of 263 to 264 °C.

For `O=C(N[C@H](Cc1ccc(C(F)(F)F)cc1)[C@H](O)c1ccc(F)cc1)c1ccc(C(F)(F)F)cc1` (racemic), the melting point lay within 162 to 163 °C.

For the compound `N#CC(C#N)(CC=C(Br)Br)Cc1ccc(OC(F)(F)F)cc1`, the melting point was found to be 127 °C.

For the compound `Cc1ncn(-c2nccc3[nH]c(=O)ccc23)c1C`, the melting point is 256 to 258 °C.

With `CN(C)c1ccc(CC(=O)N2CCC(c3[nH]nc4c3C(=O)c3c(NC(=O)NN5CCOCC5)cccc3-4)CC2)cc1`, the melting point fell in the range of 107 to 109 °C.

`CS(=O)(=O)Nc1cc2occc(=O)c2cc1Oc1ccccc1` came in with a melting point of 217 to 218 °C.

As to `COc1c(Cl)ccc(-c2cc(N)c(Cl)c(C(=O)NOCc3ccc(Cl)cc3)n2)c1F`, the melting point lay within 177 to 180 °C.

`Cc1cccc(OC(C)C)c1S(N)(=O)=O` returned a melting point of 78 °C.

For `N#Cc1ccnc(Oc2ccc(CCNc3ncnc4scnc34)cc2)c1`, the melting point was 145 to 148 °C.

The compound `COc1ccc2c(c1)C1=C(SCC3(CCN(CC(O)COc4ccc(C(C)(C)C)cc4)CC3)O1)C(=O)C2=O` (centres undefined) yielded a melting point of 153 to 156 °C.

Compound `CCOC(=O)COc1nccc(-c2ccccn2)n1` displayed a melting point of 48 to 53 °C.

`N#Cc1ccc(-c2cn3cc(Br)ccc3n2)cc1`: the melting point lay in the range of 218 to 219 °C.

In the case of `O=[N+]([O-])c1ccc(OCC#CC#CCOc2ccc([N+](=O)[O-])cc2[N+](=O)[O-])cc1`, the melting point came out at 125 °C.

`CC1(C)CC(=O)C2=C(C1)NC1=C(C(=O)CC(C)(C)C1)C2c1cccc(Oc2cnccn2)c1` showed a melting point of 204 to 207 °C.

In the case of `O=C(NOCCO)c1cc(Cl)c(F)c(F)c1Nc1ccc(I)cc1`, the melting point is 174 to 176 °C.

In the case of `NS(=O)(=O)C1C=CC=CC1(CCNC(=O)C=Cc1cccs1)OCc1ccccc1` (centres undefined), the melting point was found to be 177 °C.

As to `COc1ccc(-c2cnc(N)c(Sc3cc(C(F)(F)F)cc(C(F)(F)F)c3)n2)cc1`, the melting point lay within 136 to 138 °C.

The compound `OC(CCl)(CC(Cl)(Cl)Cl)c1cc(Cl)cc(Cl)c1` (centres undefined) yielded a melting point of 69 to 70.5 °C.

In turn, `COc1cc(C=O)ccc1OCc1nc(-c2ccccc2)cn1C` returned a melting point of 128 to 129 °C.

As for `CCCCOC(C=Cc1ccc(C(=O)O)cc1)c1ccc2c(c1)C(C)(C)CCC2(C)C` (racemic), the melting point was 78 to 80 °C.

In turn, `FC(F)(F)c1c[nH]c(-c2ccc(OCC3CO3)cc2)n1` (centres undefined) displayed a melting point of 152 to 154 °C.

Compound `CN1CCC=C(c2nnn(C)n2)C1` had a melting point of 86 to 87 °C.

`CNC(=O)Cn1nc(-c2ccccc2)c(-c2ccccc2)c(C#N)c1=O` gave a melting point of 292 to 294 °C.

Turning to `O=C1Nc2ccccc2N(C(=O)N2CCCC(CCCN3CCCC3)C2)c2ncccc21` (centres undefined), the melting point was 174 to 176 °C.

In the case of `Cc1ccc(-c2nc(CCC(=O)c3ccc(Br)s3)c(C)o2)cc1`, the melting point was in the range of 118 to 119 °C.

Regarding `Cc1cccc(N2CCOC2=O)c1CNc1cccn2c(Cl)c(C)nc12`, the melting point fell in the range of 137 to 139 °C.

Regarding `CC1(C)CC(OC(=O)CCc2cc(-n3nc4ccc(S(=O)(=O)c5ccccc5)cc4n3)c(O)c(C(C)(C)C)c2)CC(C)(C)N1`, the melting point lay in the range of 85 to 125 °C.

In the case of `O=C(CN1CCC(Cc2ccccc2)CC1)Nc1cccc([N+](=O)[O-])c1`, the melting point lay within 102 to 104 °C.

As to `CC1(C)OC(=C(C#N)C#N)C(C#N)=C1/C=C/c1ccc([N+](=O)[O-])cc1`, the melting point came to 281 °C.

`CN1C(c2ccncc2)CC(=O)CC1c1ccncc1` (centres undefined): the melting point lay in the range of 103 to 106 °C.

As for `CC(C(=O)c1ccc(F)cc1F)c1ncccn1` (centres undefined), the melting point is 118 to 119 °C.

Take `NCCc1c[nH]c2ccc(-c3ccc(F)cc3)cc12`: the melting point is over 250 °C.

`CC(=O)c1cccc2ccc(CC#N)cc12` gave a melting point of 88 °C.

Consider `COc1cc2cc(C(=O)CCC(=O)O)sc2cc1OC`, for which the melting point lay in the range of 177 to 178 °C.

Take `O=c1c2cnc3ccc(Cl)cc3c2on1-c1ccccc1`: the melting point was 174 °C.

As for `Cc1ccc(C(=O)NNC(=O)c2ccccc2Cl)cc1`, the melting point was in the range of 204 to 206 °C.

Compound `Oc1ccc(C2(c3ccc(O)cc3)CCCCC2)cc1` registered a melting point of 181 to 182 °C.

Take `Nc1cc(-c2nnc(CCc3cccc(F)c3)o2)ccn1`: the melting point was 165 to 166 °C.

For the compound `CCOC(=O)c1ncc2[nH]c3ccc(C(C)(C)C)cc3c2c1C`, the melting point was 201 to 203 °C.

Consider `CC(C)C(=O)N1C(=O)C2C=CC1C2` (centres undefined), for which the melting point is 41 to 42 °C.

`Nc1c([N+](=O)[O-])cnn1-c1c(Cl)cc(C(F)(F)F)cc1Cl` displayed a melting point of 190 °C.

The compound `O=c1[nH]c(=O)n([C@@H]2O[C@H](CO)[C@@H](O)[C@H]2O)cc1/C(I)=C\I` had a melting point of 107 to 109 °C.

Consider `COC(=O)[C@H](CC(C)C)NC(=O)[C@@H](O)[C@@H](Cc1ccc(SC)cc1)NC(=O)OCc1ccccc1`, for which the melting point lay in the range of 130 to 132 °C.

`CCOc1ccc2c(c1)n(C1CCOCC1)c(=O)n2S(=O)(=O)c1ccc(C(=O)O)cc1OC` displayed a melting point of 255 °C.

With `CCC12CCC3C4CCC(=O)C=C4CCC3C1C=CC2=O` (centres undefined), the melting point was found to be 157 °C.

In the case of `C=CCC(C(=O)N1C(=O)OCC1Cc1ccccc1)c1ccc(F)cc1` (centres undefined), the melting point lay within 103 to 104 °C.

With `O=C(Nc1ccccc1SCc1ncon1)c1ccc(Cl)cc1`, the melting point was determined as 103 °C.

Compound `Cc1nn(CC(F)(F)F)c(-c2ccc(F)cc2)c1-c1ccc2c(c1)NC(=O)CO2` came in with a melting point of 174 °C.

`CON(C)C(=O)[C@@H](Cc1ccc(OCc2ccccc2)cc1)NC(=O)OC(C)(C)C` returned a melting point of 107 to 109 °C.

Turning to `Cc1ccc(-c2ncc(C)c(C)n2)cc1`, the melting point came to 114 °C.

Compound `CCOC(=NC(=O)CCl)N1Cc2ccccc2-c2ccccc2C1` showed a melting point of 87 to 89 °C.

`COC(=O)c1ccc(OCCNC(=O)C2Cc3ccccc3N2S(=O)(=O)c2ccc(-c3cc(C(F)(F)F)ccc3Cl)cc2)cc1F` (centres undefined) yielded a melting point of 84 to 85 °C.

The compound `Nc1ccc2c(c1)nc(/C=C/c1ccccc1)n2-c1ccccn1` showed a melting point of 146 to 148 °C.

As to `CC(CCC(=O)C(C)(C)O)C1CCC2C3CC(O)C4CC(O)CCC4(C)C3CCC12C` (centres undefined), the melting point was 189 to 191 °C.

In the case of `COc1cc(N(C)c2nccc(-c3ccncc3)n2)cc(OC)c1OC`, the melting point was found to be 139 °C.

As for `COc1cccc(C(O)C2CCN(CCc3ccc(F)cc3)CC2)c1OC` (centres undefined), the melting point is 114 to 116 °C.

For the compound `Cc1ccn(-c2ccc(Cl)c(Cl)c2)n1`, the melting point was 46 to 47 °C.

Take `CCOc1cnc(N[N+](=O)[O-])[nH]c1=O`: the melting point was in the range of 189 to 192 °C.

`CC(C)c1nc(O)c(Br)c(O)n1` had a melting point of over 250 °C.

Regarding `Nc1ccccc1Sc1ccc([N+](=O)[O-])cc1[N+](=O)[O-]`, the melting point is 151 to 152 °C.

For `CCCc1c(O)cccc1Oc1ccccc1C(=O)OC`, the melting point was 80 °C.

In the case of `CCc1cc2c(s1)-n1c(C)nnc1C(CCC(=O)Nc1ccccc1)N=C2c1ccc(Cl)cc1` (centres undefined), the melting point fell in the range of 183 to 185 °C.

In the case of `COc1ccc(C(=O)Nc2ccccc2)c(C(=O)Cc2ccccn2)c1`, the melting point was in the range of 145 to 148 °C.

`COc1cc2c(cc1OC)C(=O)C(Cc1ccncc1)C2` (centres undefined) showed a melting point of 192 to 193 °C.

In turn, `CCCCOC(=O)c1ccc2cc(O)ccc2c1` had a melting point of 107 to 112 °C.

`Cc1ccccc1C(=O)Nc1ccc(C(=O)N2CCc3cn(C)nc3-c3sccc32)cc1` gave a melting point of 257 to 260 °C.

Consider `Cn1cc(C#N)c(Nc2ccc(Cl)cc2[N+](=O)[O-])n1`, for which the melting point was determined as 205 °C.

In turn, `CCOC(=O)c1cc(=O)cc(-c2ccccc2O)o1` returned a melting point of 213 to 215 °C.

Consider `CC(=NNc1ccc(C2=NNC(=O)CC2C)cc1)c1cc(O)ccc1O` (centres undefined), for which the melting point lay within 279 to 284 °C.

On to `N#Cc1cc(-c2nc3cncnc3s2)ccc1Oc1ccccc1O`, for which the melting point is 255 to 256 °C.

On to `CCCc1nc2ncnn2c(N)c1CCc1ccccc1`, for which the melting point lay within 190 to 191 °C.

As for `O=C1Nc2ccc([N+](=O)[O-])cc2Cn2nnnc21`, the melting point was 276 to 279 °C.

The compound `CCOP(=O)(/C=C/c1cn(-c2ccccc2)nc1OCc1ccc(OCc2nc(-c3ccc(C(=O)O)cc3)oc2C)c(OC)c1)OCC` returned a melting point of 194 to 195 °C.

Consider `CC(C)OC(=O)C=Cc1cc(N)ccc1Cl`, for which the melting point lay within 98 to 100 °C.

Take `CCc1nc2ccccc2c2ccc(F)cc12`: the melting point fell in the range of 105 to 106 °C.

`CCn1cnc2c(cnc3c2cnn3CC)c1=O`: the melting point was in the range of 167 to 169 °C.

`CCc1ccc(C2CCCN2S(=O)(=O)c2ccc(Cl)cc2)cc1` (racemic) yielded a melting point of 94 °C.

`COc1cc2c(cc1-c1nc3cc(-c4ccccc4)ccc3o1)oc1ccccc12` had a melting point of 155 to 160 °C.

In turn, `O=C(CC=C(Cl)C1(Cl)OC1=O)c1ccccc1` (centres undefined) returned a melting point of 121 to 122 °C.

`CC(C)Oc1cc2c(cc1O)C(=O)CC(C)(C)O2`: the melting point is 138 to 139 °C.

`C=C1C(O)CC(OC(C)=O)C2(C)C1CC1(C(C)(C)O)CC(O)C(C)=C1C(OC(=O)c1ccccc1)C2OC(C)=O` (centres undefined) returned a melting point of 200 to 201 °C.

Turning to `CC(=O)Nc1cccc2c(=O)n(C)c3ccccc3c(=O)c12`, the melting point fell in the range of 199 to 201 °C.

`COC(=O)C1=C(O)c2c(c3cc(OC)ccc3n2C)S(=O)(=O)N1C` returned a melting point of 200 to 201 °C.

In the case of `CSc1ccc(F)cc1C(C)=O`, the melting point lay in the range of 82 to 84.3 °C.

In turn, `O=[N+]([O-])c1ccc(Nc2cccc(C(F)(F)C(F)(F)C(F)(F)C(F)(F)C(F)(F)C(F)(F)C(F)(F)C(F)(F)F)c2)c([N+](=O)[O-])c1` returned a melting point of 124 to 125 °C.

`COC(=O)c1ccc(Cl)c(CSC)c1SC` gave a melting point of 47.1 °C.

Compound `NCC1Cc2cc(Cl)cc(-c3cccnc3)c2O1` (centres undefined) yielded a melting point of over 250 °C.

For the compound `COc1cc2c(cc1-c1cc(-c3ccc(C#N)cc3)on1)C(C)(C)CCC2(C)C`, the melting point is 202 to 203 °C.
